Data on ten molecules can be found in ChEMBL document CHEMBL1201862, “PubChem BioAssay data set” (2004).

Test systems include SNB-19; NCI-H226; T47D; IGROV-1; MDA-MB-435; UACC-62; SF-539; A549; EKVX; SK-OV-3; MCF7; K562; M14; A498; MDA-MB-231; LOX IMVI; OVCAR-3; SK-MEL-5; BT-549; MOLT-4.
What all share (test): DTP human tumour cell line panel, 48 h

Each structure is given as a SMILES string.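 1) Cells in 96-well plates. 2) Compound, 48 h, 5 concentrations. 3) Linear interpolation between surrounding doses. 4) Unreached endpoint = highest concentration. The concentration for 50% growth inhibition is given as GI50.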 Active and inactive are the calls of the source. Rule as the data show it: active = GI50 up to about 1.1 µM and inactive = higher.

What is called GI50 is the concentration giving 50% growth inhibition. Take `NCCSc1nc(-c2ccccc2)c(-c2ccccc2)o1`: the GI50 in the test with SNB-19 is > 100 µM (inactive); with NCI-H226, > 100 µM (inactive); in the test with T47D, 25.2 µM (inactive); with IGROV-1 it was 71.4 µM (inactive); with MDA-MB-435 it was > 100 µM (inactive); in the test on UACC-62 it was > 100 µM (inactive). For the same molecule, the GI50 in the test with SF-539 is > 100 µM (inactive); with A549, > 100 µM (inactive); with EKVX it was > 100 µM (inactive); with SK-OV-3 it was 73.3 µM (inactive); in the test on MCF7, > 100 µM (inactive); in the test on K562 it was > 100 µM (inactive). Besides, the GI50 in the test on M14, in the test on A498, in the test on MDA-MB-231, in the test on LOX IMVI, in the test on OVCAR-3 and with SK-MEL-5 was > 100 µM (inactive) each time. Besides, the GI50 in the test with BT-549 was > 100 µM (inactive).
For `O=C(Oc1cccnc1)c1cc2cc(CCl)ccc2oc1=O`, the GI50 in the test on SNB-19 was 61.9 µM (inactive); with NCI-H226, 66.1 µM (inactive); in the test with T47D, 23.3 µM (inactive); in the test on IGROV-1, 25.5 µM (inactive); in the test on MDA-MB-435, 25.9 µM (inactive); with UACC-62, 8.71 µM (inactive). Further, the GI50 in the test with SF-539 was 44.2 µM (inactive); with A549 it was 65.3 µM (inactive); in the test on EKVX, 21.5 µM (inactive); with SK-OV-3, > 100 µM (inactive); in the test with MCF7, 3.15 µM (inactive); in the test on K562 it was 19.5 µM (inactive). In addition, the GI50 in the test on M14 is 21.4 µM (inactive); in the test with MOLT-4, 23.3 µM (inactive); in the test on A498, 48.5 µM (inactive); in the test with MDA-MB-231, 20.8 µM (inactive); in the test on LOX IMVI, 21 µM (inactive); in the test on OVCAR-3, 25.5 µM (inactive). Also, the results for the GI50 in the test with SK-MEL-5 and in the test on BT-549 were 44.6 µM (inactive) and 24.8 µM (inactive), respectively.
For `COC(=O)c1ccccc1C1CN=NC12Cc1cc3c(cc1C2=O)CCC3` (stereo unspecified), the GI50 with SNB-19 is 57.5 µM (inactive); in the test with NCI-H226, 80 µM (inactive); in the test with T47D it was 56.6 µM (inactive); with IGROV-1, > 100 µM (inactive); in the test on MDA-MB-435 it was 44.5 µM (inactive); with UACC-62, 69.8 µM (inactive). Besides, the GI50 was > 100 µM (inactive) in the test with SF-539; 63.4 µM (inactive) in the test with A549; 74.5 µM (inactive) with EKVX; 86.9 µM (inactive) with SK-OV-3; 49.8 µM (inactive) with MCF7; 30.3 µM (inactive) with K562. Besides, the GI50 with M14 is 49.4 µM (inactive); in the test with MOLT-4, 35.5 µM (inactive); in the test on A498, > 100 µM (inactive); in the test on MDA-MB-231, 40.1 µM (inactive); in the test on LOX IMVI, 26.9 µM (inactive); in the test on OVCAR-3, 82.4 µM (inactive). Further, the GI50 in the test with SK-MEL-5 was 21.6 µM (inactive); in the test with BT-549, > 100 µM (inactive).
Consider `CC(=O)/C(=C/n1ccc(=O)[nH]c1=S)C(=O)Nc1ccccc1C`, for which the GI50 in the test on SNB-19, in the test on NCI-H226, in the test on T47D, in the test with IGROV-1, in the test with MDA-MB-435 and in the test with UACC-62 was > 100 µM (inactive) in each case. In addition, the GI50 in the test with SF-539, with A549, with EKVX, in the test on SK-OV-3, in the test with MCF7 and with M14 was > 100 µM (inactive) in each case. The GI50 in the test on A498, with MDA-MB-231, in the test with LOX IMVI, with OVCAR-3, in the test with SK-MEL-5 and in the test with BT-549 was > 100 µM (inactive) in each case.
Take `O=C1NCN(c2ccccc2)C12CCN(CCCN1CCN(CCOC(c3ccccc3)c3ccccc3)CC1)CC2`: the GI50 in the test on SNB-19 is 3.94 µM (inactive); in the test with NCI-H226, 2.96 µM (inactive); with T47D, 3.02 µM (inactive); in the test on IGROV-1 it was 4.03 µM (inactive); in the test on MDA-MB-435, 0.923 µM (active); in the test on UACC-62 it was 4.27 µM (inactive). In addition, the GI50 is 1.25 µM (inactive) with SF-539; 4.14 µM (inactive) in the test on A549; 3.68 µM (inactive) with EKVX; 3.75 µM (inactive) in the test on SK-OV-3; 3.11 µM (inactive) in the test on MCF7; 0.447 µM (active) in the test with K562. Besides, the GI50 in the test on M14 is 1.08 µM (active); in the test with MOLT-4, 2.13 µM (inactive); in the test on A498, 3.36 µM (inactive); in the test with MDA-MB-231, 3.52 µM (inactive); with LOX IMVI, 3.01 µM (inactive); in the test with OVCAR-3 it was 3.54 µM (inactive). Further, the GI50 with SK-MEL-5 is 1.28 µM (inactive); with BT-549, 3.92 µM (inactive).
On to `CN(C)c1ccc(/C=C(\NC(=O)c2ccccc2)c2nc3ccccc3c(=O)o2)cc1`, for which the GI50 with SNB-19, with NCI-H226, with T47D, in the test on IGROV-1, in the test on MDA-MB-435 and in the test with UACC-62 was > 100 µM (inactive) in each case. Besides, the GI50 was > 100 µM (inactive) in the test on SF-539; > 100 µM (inactive) in the test on A549; > 100 µM (inactive) in the test with EKVX; > 100 µM (inactive) with SK-OV-3; 70.5 µM (inactive) with MCF7; > 100 µM (inactive) in the test on K562. The GI50 in the test with M14, with MOLT-4, in the test with A498, with MDA-MB-231, with LOX IMVI and in the test with OVCAR-3 was > 100 µM (inactive) throughout. Further, the GI50 was 91.4 µM (inactive) in the test on SK-MEL-5 and > 100 µM (inactive) in the test with BT-549.
For the molecule `CS/C(Nc1ccccc1)=C1\C(=O)N(c2ccccc2)N=C1C`, the GI50 with SNB-19, with NCI-H226, with T47D, in the test with MDA-MB-435, in the test with UACC-62 and in the test on SF-539 was > 100 µM (inactive) each time. Moreover, the GI50 in the test on A549, in the test on EKVX, with SK-OV-3, in the test on MCF7, in the test on K562 and with M14 was > 100 µM (inactive) in each case. Further, the GI50 was > 100 µM (inactive) in the test on MOLT-4; 95.7 µM (inactive) in the test with A498; > 100 µM (inactive) in the test on MDA-MB-231; > 100 µM (inactive) with LOX IMVI; > 100 µM (inactive) in the test with OVCAR-3; > 100 µM (inactive) in the test with SK-MEL-5. For the same molecule, the GI50 in the test on BT-549 is > 100 µM (inactive).
As for `O=C1CC2(CCC(O)(c3ccc(Cl)cc3)C(C(=O)c3ccc(Cl)cc3)C2)C(=O)c2ccccc2N1` (stereo unspecified), the GI50 in the test on SNB-19 is 2.26 µM (inactive); in the test on NCI-H226, 12.7 µM (inactive); in the test with T47D, 12.4 µM (inactive); with IGROV-1, > 26.3 µM (inactive); in the test on MDA-MB-435, > 29.9 µM (inactive); in the test on UACC-62, 14.8 µM (inactive). In addition, the GI50 in the test with SF-539 was 3.42 µM (inactive); with A549 it was 12.5 µM (inactive); in the test with EKVX, > 23.6 µM (inactive); in the test on SK-OV-3, 12.4 µM (inactive); with MCF7, 22.7 µM (inactive); in the test with K562 it was 3.28 µM (inactive). The GI50 is 18.2 µM (inactive) in the test with M14; 2.12 µM (inactive) in the test with MOLT-4; 17.3 µM (inactive) with A498; 10.2 µM (inactive) in the test with MDA-MB-231; 11.7 µM (inactive) with LOX IMVI; > 100 µM (inactive) in the test with OVCAR-3. The figures for the GI50 in the test with SK-MEL-5 and in the test with BT-549 were 11.4 µM (inactive) and 19.7 µM (inactive), respectively.
With `COCC1OCCN1C` (stereo unspecified), the GI50 in the test on SNB-19, in the test with NCI-H226, with T47D, in the test with IGROV-1, with MDA-MB-435 and with UACC-62 was > 100 µM (inactive) each time. Also, the GI50 with SF-539, in the test with A549, in the test on EKVX, in the test on SK-OV-3, in the test on MCF7 and with K562 was > 100 µM (inactive) each time. In addition, the GI50 in the test on M14, in the test on MOLT-4, in the test with A498, in the test on MDA-MB-231, in the test on LOX IMVI and with OVCAR-3 was > 100 µM (inactive) each time. Moreover, the GI50 with SK-MEL-5 and with BT-549 was > 100 µM (inactive) throughout.
For the molecule `CN(C)CCCN1C(=S)N(CCCN(C)C)c2c3cc(O)ccc3nc3c([N+](=O)[O-])ccc1c23`, the GI50 was 2.06 µM (inactive) in the test on SNB-19; 1.94 µM (inactive) with NCI-H226; 1.44 µM (inactive) in the test with T47D; 0.7 µM (active) with IGROV-1; 4.2 µM (inactive) in the test on MDA-MB-435; 5.13 µM (inactive) with UACC-62. The GI50 in the test with SF-539 is 1.29 µM (inactive); with A549 it was 0.743 µM (active); in the test with EKVX, 4.08 µM (inactive); in the test with SK-OV-3, 4.11 µM (inactive); with MCF7 it was 0.902 µM (active); in the test with K562, 2.14 µM (inactive). For the same molecule, the GI50 in the test on M14 is 7.05 µM (inactive); in the test on MOLT-4 it was 0.0953 µM (active); in the test with A498 it was 0.839 µM (active); in the test with MDA-MB-231, 3.71 µM (inactive); in the test with LOX IMVI it was 1.26 µM (inactive); in the test on OVCAR-3, 1.68 µM (inactive). The GI50 is 3.18 µM (inactive) in the test on SK-MEL-5 and 11.7 µM (inactive) in the test on BT-549.
